Tests used:
p110 alpha PI3K = molecular target: T1, p110 alpha PI3K (Homo sapiens, UniProt P42336); assay: p110α (alpha) PI3K binding assay (fluorescence polarization; alternatively radiometric); details: read-out: IC50, Ki (μmole) PI3K, p110 alpha binding assay
T1 construct: purchased Upstate Cell Signaling Solutions, Charlottesville, Va
Description: Binding Assays: Initial polarization experiments were performed on an Analyst HT® 96-384 (Molecular Devices Corp, Sunnyvale, Calif.). […] After an incubation time of 30 minutes at room temperature, the reactions were stopped by the addition of GRP-1 and PIP3-TAMRA probe (Echelon-Inc., Salt Lake City, Utah) 100 nM and 5 nM final concentrations respectively. Read with standard cut-off filters for the rhodamine fluorophore (λex=530 nm; λem=590 nm) in 384-well black low volume Proxiplates® (PerkinElmer, Wellesley, Mass.) Fluorescence polarization values were plotted as a function of the protein concentration, and the EC50 values were obtained by fitting the data to a 4-parameter equation using KaleidaGraph® software (Synergy software, Reading, Pa.). This experiment also establishes the appropriate protein concentration to use in subsequent competition experiments with inhibitors.
After an incubation time of 30 minutes at room temperature, the reactions were stopped by the addition of GRP-1 and PIP3-TAMRA probe (Echelon-Inc., Salt Lake City, Utah) 100 nM and 5 nM final concentrations respectively. Read with standard cut-off filters for the rhodamine fluorophore (λex=530 nm; λem=590 nm) in 384-well black low volume PROXIPLATES® (PerkinElmer, Wellesley, Mass.) Fluorescence polarization values were plotted as a function of the antagonist concentration, and the IC50 values were obtained by fitting the data to a 4-parameter equation in Assay Explorer® software (MDL, San Ramon, Calif.).
The Formula I compound was serially diluted in 100% DMSO. The kinase reaction was incubated for 1 hr at room temperature, and the reaction was terminated by the addition of PBS. IC50 values were subsequently determined using sigmoidal dose-response curve fit (variable slope).

MDA-MB-361.1 = assay: In vitro cell proliferation assay (CellTiter-Glo), MDA-MB-361.1; assay type: cell-based; details: Cell line: MDA-MB-361.1; Tissue type: breast; Mutation Status: PI3K; read-out: EC50 (μmole)
Description: (§1) Efficacy of Formula I compounds was measured by a cell proliferation assay employing the following protocol (Promega Corp. Technical Bulletin TB288; Mendoza et al (2002) Cancer Res. 62:5485-5488):
(§2) 1. An aliquot of 100 μl of cell culture containing about 10^4 cells (PC3, Detroit562, or MDAMB361.1) in medium was deposited in each well of a 384-well, opaque-walled plate.
(§3) 2. Control wells were prepared containing medium and without cells.
(§4) 3. The compound was added to the experimental wells and incubated for 3-5 days.
(§5) 4. The plates were equilibrated to room temperature for approximately 30 minutes.
(§6) 5. A volume of CellTiter-Glo® Reagent equal to the volume of cell culture medium present in each well was added.
(§7) 6. The contents were mixed for 2 minutes on an orbital shaker to induce cell lysis.
(§8) 7. The plate was incubated at room temperature for 10 minutes to stabilize the luminescence signal.
(§9) 8. Luminescence was recorded and reported in graphs as RLU=relative luminescence units.
(§10) Alternatively, cells were seeded at optimal density in a 96 well plate and incubated for 4 days in the presence of test compound. Alamar Blue™ was subsequently added to the assay medium, and cells were incubated for 6 hr before reading at 544 nm excitation, 590 nm emission. EC50 values were calculated using a sigmoidal dose response curve fit. The term EC50 refers to the half maximal effective concentration and is the concentration at which a drug induces a response halfway between the baseline and maximum after some specified exposure time. It is commonly used as a measure of drug potency.
(§11) The anti-proliferative effects of Formula I exemplary compounds were measured by the CellTiter-Glo® Assay against various tumor cell lines, including the following: […]

PC3 = assay: In vitro cell proliferation assay (CellTiter-Glo), PC3; assay type: cell-based; details: Homo sapiens, PC-3; Cell line: PC3; Tissue type: prostate; Mutation Status: PTEN; read-out: EC50 (μmole)
Description: as §1, §2, §3, §4, §5, §6, §7, §8, §9, §10, §11

T1 sequence (P42336 whole entry): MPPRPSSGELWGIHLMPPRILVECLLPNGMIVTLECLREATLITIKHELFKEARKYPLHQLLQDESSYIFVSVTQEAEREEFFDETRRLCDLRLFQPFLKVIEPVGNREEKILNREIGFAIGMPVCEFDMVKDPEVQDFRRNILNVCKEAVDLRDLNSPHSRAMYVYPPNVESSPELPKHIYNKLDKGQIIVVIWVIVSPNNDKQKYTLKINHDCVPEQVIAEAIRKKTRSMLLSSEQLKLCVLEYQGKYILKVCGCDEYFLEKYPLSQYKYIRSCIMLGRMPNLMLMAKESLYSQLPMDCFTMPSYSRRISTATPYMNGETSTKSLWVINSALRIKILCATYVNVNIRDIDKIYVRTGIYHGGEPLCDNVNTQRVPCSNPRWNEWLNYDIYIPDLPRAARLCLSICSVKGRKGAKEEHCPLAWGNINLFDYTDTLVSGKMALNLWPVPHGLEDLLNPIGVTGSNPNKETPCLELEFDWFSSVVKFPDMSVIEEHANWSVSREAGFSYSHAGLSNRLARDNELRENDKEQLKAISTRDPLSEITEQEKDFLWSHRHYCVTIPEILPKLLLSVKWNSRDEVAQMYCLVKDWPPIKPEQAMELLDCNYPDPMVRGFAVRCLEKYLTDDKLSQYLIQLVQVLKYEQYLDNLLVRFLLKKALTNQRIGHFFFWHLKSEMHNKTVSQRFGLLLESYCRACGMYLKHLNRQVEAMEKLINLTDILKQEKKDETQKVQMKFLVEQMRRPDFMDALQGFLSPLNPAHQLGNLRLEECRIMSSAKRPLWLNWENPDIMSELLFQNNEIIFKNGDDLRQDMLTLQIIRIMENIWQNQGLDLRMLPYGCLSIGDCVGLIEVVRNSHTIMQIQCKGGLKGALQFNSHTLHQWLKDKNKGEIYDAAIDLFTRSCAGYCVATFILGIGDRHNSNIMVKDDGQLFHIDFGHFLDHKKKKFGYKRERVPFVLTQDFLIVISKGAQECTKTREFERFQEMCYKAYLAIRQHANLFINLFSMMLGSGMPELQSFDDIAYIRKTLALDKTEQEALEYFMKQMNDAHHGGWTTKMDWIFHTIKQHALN
T1 sequence (P27986 whole entry partner): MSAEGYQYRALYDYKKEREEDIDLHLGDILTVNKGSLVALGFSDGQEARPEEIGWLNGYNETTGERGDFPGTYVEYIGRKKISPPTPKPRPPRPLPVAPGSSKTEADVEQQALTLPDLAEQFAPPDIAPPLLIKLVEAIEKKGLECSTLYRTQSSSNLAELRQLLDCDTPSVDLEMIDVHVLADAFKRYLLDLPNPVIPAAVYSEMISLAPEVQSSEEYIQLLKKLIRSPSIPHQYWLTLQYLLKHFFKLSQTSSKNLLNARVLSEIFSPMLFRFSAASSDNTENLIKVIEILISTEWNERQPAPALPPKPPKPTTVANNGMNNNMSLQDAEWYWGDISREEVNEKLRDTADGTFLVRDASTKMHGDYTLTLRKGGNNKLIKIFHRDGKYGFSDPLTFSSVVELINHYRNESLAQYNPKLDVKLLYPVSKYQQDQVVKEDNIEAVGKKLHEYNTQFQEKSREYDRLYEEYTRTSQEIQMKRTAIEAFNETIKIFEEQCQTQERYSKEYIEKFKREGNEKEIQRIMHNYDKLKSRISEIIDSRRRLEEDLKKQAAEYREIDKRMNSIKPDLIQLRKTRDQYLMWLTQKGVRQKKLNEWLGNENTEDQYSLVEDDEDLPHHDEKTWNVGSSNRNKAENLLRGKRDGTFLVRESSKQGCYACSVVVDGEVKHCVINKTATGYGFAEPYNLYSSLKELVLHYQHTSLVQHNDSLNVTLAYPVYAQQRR

| SMILES | IC50 (p110 alpha PI3K) | EC50 (MDA-MB-361.1) | EC50 (PC3) |
| --- | --- | --- | --- |
| CC(C)Cn1cc(-c2nc(N3CCOCC3)c3nc4n(c3n2)CCOC4(C)C)cn1 [Compound 148, 2-(1-isobutyl-1H-pyrazol-4-yl)-6,6-dimethyl-4-morpholino-8,9-dihydro-6H-[1,4]oxazino[3,4-e]purine] | > 695 nM | > 10000 nM | > 10000 nM |
| C[C@@H]1CN(c2nc(-c3cnc(N)nc3)nc3c2nc2n3CCOC2(C)C)C[C@H](C)O1 [Compound 171, 5-(4-((2S,6R)-2,6-dimethylmorpholino)-6,6-dimethyl-8,9-dihydro-6H-[1,4]oxazino[3,4-e]purin-2-yl)pyrimidin-2-amine] |  | 3100 nM | 3800 nM |
| CC1(C)OCCc2c1sc1c(N3CCOCC3)nc(-c3cnc(N)nc3)nc21 [Compound 168, 5-(8,8-Dimethyl-1-morpholin-4-yl-5,8-dihydro-6H-7-oxa-9-thia-2,4-diaza-fluoren-3-yl)-pyrimidin-2-ylamine] |  | 237 nM | 215 nM |
| CC(C)NC(=O)Nc1ccc(-c2nc(N3CCOCC3)c3nc4n(c3n2)CCOC4(C)C)cc1 [Compound 165, 1-(4-(6,6-dimethyl-4-morpholino-8,9-dihydro-6H-[1,4]oxazino[3,4-e]purin-2-yl)phenyl)-3-isopropylurea] |  | 1200 nM | 1300 nM |
| CN(C)c1cnc(-c2nc(N3CCOCC3)c3nc4n(c3n2)CCOC4(C)C)cn1 [Compound 163, 5-(6,6-dimethyl-4-morpholino-8,9-dihydro-6H-[1,4]oxazino[3,4-e]purin-2-yl)-N,N-dimethylpyrazin-2-amine] | > 695 nM | > 10000 nM | > 10000 nM |
| CC1(C)CN(c2nc(-c3cnc(N)nc3)nc3c2nc2n3CCOC2(C)C)CCO1 [Compound 172, 5-(4-(2,2-dimethylmorpholino)-6,6-dimethyl-8,9-dihydro-6H-[1,4]oxazino[3,4-e]purin-2-yl)pyrimidin-2-amine] |  | 1500 nM | 1400 nM |
| Cc1nc(N)ncc1-c1nc(N2CCOCC2)c2nc3n(c2n1)CCOC3(C)C [Compound 102, 5-(6,6-dimethyl-4-morpholino-8,9-dihydro-6h-[1,4]oxazino[3,4-e]purin-2-yl)-4-methylpyrimidin-2-amine] |  | 81 nM | 2000 nM |
| CC1(C)CCn2c(nc3c(N4CCOCC4)nc(-c4cnc(N)nc4)nc32)O1 [Compound 115, 5-(7,7-dimethyl-4-morpholino-8,9-dihydro-7h-[1,3]oxazino[2,3-e]purin-2-yl)pyrimidin-2-amine] |  | 958 nM | 1800 nM |
| Nc1ncc(-c2nc(N3CCOCC3)c3c(n2)N2CCC[C@H]2CO3)cn1 [Compound 122, 5-((S)-6-Morpholin-4-yl-2,3,3a,4-tetrahydro-1H-5-oxa-7,9,9b-triaza-cyclopenta[a]naphthalen-8-yl)-pyrimidin-2-ylamine] |  | 3200 nM | 2000 nM |
| CC1(C)OCCn2c1nc1c(N3CCOCC3)nc(-c3ccc(N)cn3)nc12 [Compound 138, 6-(6,6-dimethyl-4-morpholino-8,9-dihydro-6H-[1,4]oxazino[3,4-e]purin-2-yl)pyridine-3-amine] | > 695 nM | > 10000 nM | > 10000 nM |
| CC1(C)OCCn2c1cc1c(N3CCOCC3)nc(-c3cnc(N)nc3)nc12 [Compound 177, 5-(8,8-Dimethyl-1-morpholin-4-yl-5,6-dihydro-8H-7-oxa-2,4,4b-triaza-fluoren-3-yl)-pyrimidin-2-ylamine] |  | 94 nM | 185 nM |
| FC(F)(F)C1OCCn2c1nc1c(N3CCOCC3)nc(-c3cccc4[nH]ncc34)nc12 (stereo not drawn) [Compound 169, 2-(1H-indazol-4-yl)-4-morpholino-6-(trifluoromethyl)-8,9-dihydro-6H-[1,4]oxazino[3,4-e]purine] |  | 4400 nM | 6900 nM |
| CCNC(=O)Nc1ccc(-c2nc(N3CCOCC3)c3c(n2)C2(C)CCOC2N3C)cc1 (stereo not drawn) [Compound 101, 1-[4-(3a,8-dimethyl-7-morpholin-4-yl-3,3a,8,8a-tetrahydro-2h-1-oxa-4,6,8-triaza-cyclopenta[a]inden-5-yl)-phenyl]-3-ethyl-urea] |  | 315 nM | 208 nM |
| Oc1cccc(-c2nc(N3CCOCC3)c3nc4n(c3n2)CCOC4C(F)(F)F)c1 (stereo not drawn) [Compound 170, 3-(4-morpholino-6-(trifluoromethyl)-8,9-dihydro-6H-[1,4]oxazino[3,4-e]purin-2-yl)phenol] |  | 920 nM | 1100 nM |
| CC1(C)OCCn2c1nc1c(N3C[C@@H]4C[C@H]3CO4)nc(-c3cnc(N)nc3)nc12 [Compound 174, 5-(4-((1S,4S)-2-oxa-5-azabicyclo[2.2.1]heptan-5-yl)-6,6-dimethyl-8,9-dihydro-6H-[1,4]oxazino[3,4-e]purin-2-yl)pyrimidin-2-amine] |  | 3400 nM | 3600 nM |
